In patent publication US20020193425A1, “Cancer chemopreventative compounds and compositions and methods of treating cancers” (priority 2001, published 2002):

Tests used:
[1] = system: DMBA-induced preneoplastic lesion formation in mouse mammary organ culture; assay: Inhibition of DMBA-induced preneoplastic lesion formation in mouse mammary organ culture (MMOC); type: cell-based; conditions: Mus musculus; quassinoid (2 μM); in comparison with a DMBA control
Description: The identification of potential inhibitors of DMBA-induced preneoplastic lesion formation in mammary organ culture has been described previously. Briefly, four-week old BALB/c female mice (Charles River) were pretreated for nine days with 1 μg estradiol and 1 mg progesterone. The thoracic pair of mammary glands was dissected on silk and incubated with growth-promoting hormones in the presence of test compounds (2 μM) for 10 days. DMBA ([…]) was included in the medium (containing […]) for 24 hours on the third day of culture to induce preneoplastic mammary lesions. Following 10 days of growth promoting phase, all hormones except insulin were withdrawn and the glands were allowed to regress to lobuloalveolar structures during a 14-day incubation period. Glands then were fixed in 10% buffered formalin and stained with alum carmine. Incidence of lesion formation (percentage of glands per group with mammary lesions) was recorded, and percent inhibition was calculated by comparison with the DMBA control group that was not treated with test sample. Active samples induce 60% inhibition, based on historical controls.

c-myc mRNA, Kasumi-1 = assay: c-myc mRNA levels, real time RT-PCR; type: cell-based
Description: (§1) RNA was extracted from 10^6 cells using TRIZOL® Reagent (Life Technologies). Following isopropanol precipitation, the pellet was washed in 75% aqueous ethanol and the RNA was dissolved in […] of diethyl pyrocarbonate (DEPC)-treated distilled water. Subsequently, the samples were stored at −80° C. RNA quantitation was performed by UV measurement at 260 nm. The cDNA synthesis was performed in a total volume of […], containing 1×TaqManÒ RT buffer, 5.5 mM MgCl2, 2 mM dNTPs mixture, 2.5 mM random hexamers, 4 U RNase inhibitor, 12.5 U MultiScriber RT (Perkin Elmer/Applied Biosystems) and […] of RNA. The reaction was performed for 10 min at 25° C., followed by 48° C. for 30 min and a 5 min incubation step at 95° C. After the reaction, […] of DEPC-treated distilled water was added to each sample and […] was used for each PCR.
(§2) The PCR and subsequent analyses were performed in the GeneAmp 5700 Sequence Detection System (Applied Biosystems). Real-time quantitation was performed using the TaqMan technology of Applied Biosystems (Foster City, Calif., USA). c-Myc primers and probe sequences (5′ to 3′) were as follows: […], […] and […] (Applied Biosystems).
(§3) PCR reactions were performed in triplicate. The PCR reaction mixture contained 300 nM of both primers, 150 nM TaqMan probe, and 1×TaqMan Universal Master Mix (Applied Biosystems). The reactions first were incubated at 50° C. for 2 min, followed by 10 min at 95° C. The PCR itself consisted of 40 cycles with 15 s at 95° C. and 1 min at 60° C. each. The fluorescence signal was measured during the last 30 s of the annealing/extension phase. After the PCR, a fluorescence threshold value was set and threshold cycle (Ct) values were determined, i.e., the fractional cycle at which the fluorescence signal reached this threshold. These values were used for further calculations.
(§4) β-Actin (TaqMan PDAR control, Applied Biosystems) was used as an endogenous reference to correct for any differences in the amount of total RNA used for a reaction and to compensate for different levels of inhibition during reverse transcription of RNA into cDNA. c-Myc and β-actin expression were related to a standard curve derived from a serial dilution of K562 cDNA with dH2O. Also, c-Myc and β-actin quantities were expressed in terms of ng of K562 RNA yielding the same level of expression. Subsequently, normalization was achieved by dividing the expression level of c-Myc by the β-actin expression level. Finally, results were expressed as a percentage, where the level of c-Myc observed in the DMSO-treated samples was considered as 100%.
(§5) Cells were treated with brusatol (25 ng/ml) or bruceantin (10 ng/ml) for 4 or 24 h and then analyzed for c-myc and β-actin mRNA using real time RT-PCR. Results are shown as percentage of c-myc mRNA expression of control (0.1%, v/v, DMSO) values. Results are the mean of triplicate samples (±standard deviation). c-Myc mRNA values were normalized relative to β-actin.

c-myc mRNA, K562 = assay: c-myc mRNA levels, real time RT-PCR; type: cell-based
Description: as §1, §2, §3, §4, §5

c-myc mRNA, Daudi = assay: c-myc mRNA levels, real time RT-PCR; type: cell-based
Description: as §1, §2, §3, §4, §5

c-myc mRNA, NB4 = assay: c-myc mRNA levels, real time RT-PCR; type: cell-based
Description: as §1, §2, §3, §4, §5

c-myc mRNA, Reh = assay: c-myc mRNA levels, real time RT-PCR; type: cell-based
Description: as §1, §2, §3, §4, §5

c-myc mRNA, RS4;11 = assay: c-myc mRNA levels, real time RT-PCR; type: cell-based
Description: as §1, §2, §3, §4, §5

c-myc mRNA, U937 = assay: c-myc mRNA levels, real time RT-PCR; type: cell-based
Description: as §1, §2, §3, §4, §5

c-myc mRNA, SUPB13 = assay: c-myc mRNA levels, real time RT-PCR; type: cell-based
Description: as §1, §2, §3, §4, §5

c-myc mRNA, BV173 = assay: c-myc mRNA levels, real time RT-PCR; type: cell-based
Description: as §1, §2, §3, §4, §5

c-myc mRNA, HL-60 = assay: c-myc mRNA levels, real time RT-PCR; type: cell-based, human
Description: as §1, §2, §3, §4, §5

`COC(=O)[C@@]12OC[C@]34[C@H]([C@@H](O)[C@@H]1O)[C@@]1(C)CC(=O)C(O)=C(C)[C@@H]1C[C@H]3OC(=O)[C@H](OC(=O)C=C(C)C)[C@@H]24` [compound 1, brusatol] was tested, and the inhibition at 2 µM [1] was 70%, the “c-myc mRNA expression, percentage of control” value (c-myc mRNA, Kasumi-1; Brusatol (25 ng/ml), 4 h) was 27 ± 5 % and the “c-myc mRNA expression, percentage of control” value (c-myc mRNA, Kasumi-1; Brusatol (25 ng/ml), 24 h) was 31 ± 3 %. For the same compound, the “decrease in c-Myc mRNA levels” value (c-myc mRNA, K562; 4 h treatment) was “about 40%”, the “c-myc mRNA expression, percentage of control” value (c-myc mRNA, K562; Brusatol (25 ng/ml), 4 h) was 62 ± 4 % and the “c-myc mRNA expression, percentage of control” value (c-myc mRNA, K562; Brusatol (25 ng/ml), 24 h) was 45 ± 6 %. The “c-myc mRNA expression, percentage of control” value (c-myc mRNA, Daudi; Brusatol (25 ng/ml), 4 h) was 100 ± 7%, the “c-myc mRNA expression, percentage of control” value (c-myc mRNA, Daudi; Brusatol (25 ng/ml), 24 h) was 84 ± 1 % and the “c-myc mRNA expression, percentage of control” value (c-myc mRNA, NB4; Brusatol (25 ng/ml), 4 h) was 34 ± 4 %. For the same compound, the “c-myc mRNA expression, percentage of control” value (c-myc mRNA, NB4; Brusatol (25 ng/ml), 24 h) was 24 ± 3 %, the “c-myc mRNA expression, percentage of control” value (c-myc mRNA, Reh; Brusatol (25 ng/ml), 4 h) was 87 ± 2% and the “c-myc mRNA expression, percentage of control” value (c-myc mRNA, Reh; Brusatol (25 ng/ml), 24 h) was 38 ± 3 %. The “c-myc mRNA expression, percentage of control” value (c-myc mRNA, RS4;11; RS4,11, Brusatol (25 ng/ml), 24 h) was 37 ± 2 %, the “c-myc mRNA expression, percentage of control” value (c-myc mRNA, RS4;11; RS4;11, Brusatol (25 ng/ml), 4 h) was 54 ± 5 % and the “c-myc mRNA expression, percentage of control” value (c-myc mRNA, U937; Brusatol (25 ng/ml), 4 h) was 103 ± 1%. For the same compound, the “c-myc mRNA expression, percentage of control” value (c-myc mRNA, U937; Brusatol (25 ng/ml), 24 h) was 19 ± 1 %, the “c-myc mRNA expression, percentage of control” value (c-myc mRNA, SUPB13; Brusatol (25 ng/ml), 4 h) was 27 ± 3 % and the “c-myc mRNA expression, percentage of control” value (c-myc mRNA, SUPB13; Brusatol (25 ng/ml), 24 h) was 24 ± 1 %. The “c-myc mRNA expression, percentage of control” value (c-myc mRNA, BV173; Brusatol (25 ng/ml), 4 h) was 78 ± 12 %, the “c-myc mRNA expression, percentage of control” value (c-myc mRNA, BV173; Brusatol (25 ng/ml), 24 h) was 45 ± 0 % and the “decrease in c-Myc mRNA levels” value (c-myc mRNA, HL-60; 4 h treatment) was “about 50%”. For the same compound, the “c-myc mRNA expression, percentage of control” value (c-myc mRNA, HL-60; Brusatol (25 ng/ml), 4 h) was 54 ± 2 % and the “c-myc mRNA expression, percentage of control” value (c-myc mRNA, HL-60; Brusatol (25 ng/ml), 24 h) was 11 ± 2 %.

With `COC(=O)[C@@]12OC[C@]34[C@H]([C@@H](O)[C@@H]1O)[C@@]1(C)CC(=O)C(O)=C(C)[C@@H]1C[C@H]3OC(=O)[C@H](OC(=O)/C=C(\C)C(C)C)[C@@H]24` [compound 2, bruceantin] the inhibition at 2 µM [1] was 70%, the “c-myc mRNA expression, percentage of control” value (c-myc mRNA, Kasumi-1; Bruceantin (10 ng/ml), 4 h) was 20 ± 2 % and the “c-myc mRNA expression, percentage of control” value (c-myc mRNA, Kasumi-1; Bruceantin (10 ng/ml), 24 h) was 15 ± 2 %. The “c-myc mRNA expression, percentage of control” value (c-myc mRNA, K562; Bruceantin (10 ng/ml), 4 h) was 55 ± 2 %, the “c-myc mRNA expression, percentage of control” value (c-myc mRNA, K562; Bruceantin (10 ng/ml), 24 h) was 33 ± 2 % and the “c-myc mRNA expression, percentage of control” value (c-myc mRNA, Daudi; Bruceantin (10 ng/ml), 4 h) was 134 ± 17%. The “c-myc mRNA expression, percentage of control” value (c-myc mRNA, Daudi; Bruceantin (10 ng/ml), 24 h) was 70 ± 5 %, the “c-myc mRNA expression, percentage of control” value (c-myc mRNA, NB4; Bruceantin (10 ng/ml), 4 h) was 27 ± 4 % and the “c-myc mRNA expression, percentage of control” value (c-myc mRNA, NB4; Bruceantin (10 ng/ml), 24 h) was 85 ± 5%. The “c-myc mRNA expression, percentage of control” value (c-myc mRNA, Reh; Bruceantin (10 ng/ml), 4 h) was 68 ± 5 %, the “c-myc mRNA expression, percentage of control” value (c-myc mRNA, Reh; Bruceantin (10 ng/ml), 24 h) was 42 ± 6 % and the “c-myc mRNA expression, percentage of control” value (c-myc mRNA, RS4;11; RS4;11, Bruceantin (10 ng/ml), 4 h) was 68 ± 3%. The “c-myc mRNA expression, percentage of control” value (c-myc mRNA, RS4;11; RS4;11, Bruceantin (10 ng/ml), 24 h) was 31 ± 8 %, the “c-myc mRNA expression, percentage of control” value (c-myc mRNA, U937; Bruceantin (10 ng/ml), 4 h) was 86 ± 1% and the “c-myc mRNA expression, percentage of control” value (c-myc mRNA, U937; Bruceantin (10 ng/ml), 24 h) was 19 ± 2 %. The “c-myc mRNA expression, percentage of control” value (c-myc mRNA, SUPB13; Bruceantin (10 ng/ml), 4 h) was 38 ± 2 %, the “c-myc mRNA expression, percentage of control” value (c-myc mRNA, SUPB13; Bruceantin (10 ng/ml), 24 h) was 24 ± 2 % and the “c-myc mRNA expression, percentage of control” value (c-myc mRNA, BV173; Bruceantin (10 ng/ml), 4 h) was 125 ± 11 %. The “c-myc mRNA expression, percentage of control” value (c-myc mRNA, BV173; Bruceantin (10 ng/ml), 24 h) was 67 ± 9 %, the “c-myc mRNA expression, percentage of control” value (c-myc mRNA, HL-60; Bruceantin (10 ng/ml), 4 h) was 76 ± 9 % and the “c-myc mRNA expression, percentage of control” value (c-myc mRNA, HL-60; Bruceantin (10 ng/ml), 24 h) was 16 ± 0 %.
